Results as given in the NIST ThermoML archive (doi:10.1021/je900407u).

Assay: isobaric coefficient of expansion
Settings: Liquid, Micro DSCII

CCCC[n+]1ccn(C)c1.O=S(=O)([N-]S(=O)(=O)C(F)(F)F)C(F)(F)F
isobaric coefficient of expansion
Settings	5000 kPa	10000 kPa	15000 kPa	20000 kPa	25000 kPa	30000 kPa	35000 kPa	40000 kPa	45000 kPa	50000 kPa
278.15 K	0.000672 1/K	0.000661 1/K	0.000651 1/K	0.000643 1/K	0.000632 1/K	0.000627 1/K	0.000618 1/K	0.000612 1/K	0.000602 1/K	0.000594 1/K
288.15 K	0.000665 1/K	0.000656 1/K	0.000646 1/K	0.000638 1/K	0.000632 1/K	0.000622 1/K	0.000615 1/K	0.000606 1/K	0.000599 1/K	0.000594 1/K
298.15 K	0.000662 1/K	0.000653 1/K	0.000642 1/K	0.000633 1/K	0.000626 1/K	0.000616 1/K	0.000607 1/K	0.000599 1/K	0.000592 1/K	0.000586 1/K
308.15 K	0.000657 1/K	0.000647 1/K	0.000636 1/K	0.000627 1/K	0.000617 1/K	0.00061 1/K	0.000602 1/K	0.000595 1/K	0.000586 1/K	0.000578 1/K
318.15 K	0.00065 1/K	0.000646 1/K	0.000634 1/K	0.000623 1/K	0.000614 1/K	0.000605 1/K	0.000597 1/K	0.000588 1/K	0.000581 1/K	0.000573 1/K
328.15 K	0.000665 1/K	0.000649 1/K	0.000636 1/K	0.000625 1/K	0.000614 1/K	0.000603 1/K	0.000595 1/K	0.000582 1/K	0.000578 1/K	0.000569 1/K
338.15 K	0.000646 1/K	0.000635 1/K	0.000625 1/K	0.000615 1/K	0.000605 1/K	0.000597 1/K	0.000587 1/K	0.00058 1/K	0.000573 1/K	0.000566 1/K
348.15 K	0.000653 1/K	0.000639 1/K	0.000623 1/K	0.000613 1/K	0.000604 1/K	0.000595 1/K	0.000586 1/K	0.000578 1/K	0.000569 1/K	0.000563 1/K

CCCCn1cc[n+](C)c1.[F][Sb-]([F])([F])([F])([F])[F] [1-butyl-3-methylimidazolium hexafluoroantimonate]
isobaric coefficient of expansion
Settings	5000 kPa	10000 kPa	15000 kPa	20000 kPa	25000 kPa	30000 kPa	35000 kPa	40000 kPa	45000 kPa	50000 kPa
278.15 K	0.000636 1/K	0.000627 1/K	0.000619 1/K	0.000614 1/K	0.000607 1/K	0.0006 1/K	0.000593 1/K	0.000589 1/K	0.000582 1/K	0.000575 1/K
288.15 K	0.00063 1/K	0.000621 1/K	0.000614 1/K	0.000609 1/K	0.000603 1/K	0.000596 1/K	0.000589 1/K	0.000582 1/K	0.000575 1/K	0.000573 1/K
298.15 K	0.000624 1/K	0.000619 1/K	0.000609 1/K	0.000602 1/K	0.000597 1/K	0.000588 1/K	0.000581 1/K	0.000576 1/K	0.000571 1/K	0.000566 1/K
308.15 K	0.00062 1/K	0.00061 1/K	0.000604 1/K	0.000596 1/K	0.000589 1/K	0.000583 1/K	0.000576 1/K	0.000571 1/K	0.000563 1/K	0.000558 1/K
318.15 K	0.000612 1/K	0.000609 1/K	0.000599 1/K	0.000591 1/K	0.000584 1/K	0.000577 1/K	0.00057 1/K	0.000564 1/K	0.000557 1/K	0.00055 1/K
328.15 K	0.000609 1/K	0.000601 1/K	0.000595 1/K	0.000589 1/K	0.00058 1/K	0.000573 1/K	0.000566 1/K	0.000559 1/K	0.000553 1/K	0.000547 1/K
338.15 K	0.000607 1/K	0.000599 1/K	0.000593 1/K	0.000585 1/K	0.000575 1/K	0.000569 1/K	0.000563 1/K	0.000556 1/K	0.000549 1/K	0.000545 1/K
348.15 K	0.000602 1/K	0.000597 1/K	0.000588 1/K	0.000579 1/K	0.000574 1/K	0.000567 1/K	0.000562 1/K	0.000555 1/K	0.000549 1/K	0.000542 1/K

CCCCn1cc[n+](C)c1.COS(=O)(=O)[O-] [1-butyl-3-methylimidazolium methyl sulfate]
isobaric coefficient of expansion
Settings	5000 kPa	10000 kPa	15000 kPa	20000 kPa	25000 kPa	30000 kPa	35000 kPa	40000 kPa	45000 kPa	50000 kPa
278.15 K	0.000563 1/K	0.000556 1/K	0.00055 1/K	0.000545 1/K	0.00054 1/K	0.000535 1/K	0.000531 1/K	0.000527 1/K	0.000521 1/K	0.000516 1/K
288.15 K	0.000557 1/K	0.00055 1/K	0.000543 1/K	0.000539 1/K	0.000537 1/K	0.00053 1/K	0.000527 1/K	0.00052 1/K	0.000514 1/K	0.000513 1/K
298.15 K	0.000549 1/K	0.000547 1/K	0.000539 1/K	0.000533 1/K	0.000529 1/K	0.000524 1/K	0.000518 1/K	0.000513 1/K	0.00051 1/K	0.000507 1/K
308.15 K	0.000544 1/K	0.000538 1/K	0.000533 1/K	0.000527 1/K	0.000522 1/K	0.000517 1/K	0.000512 1/K	0.000509 1/K	0.000504 1/K	0.0005 1/K
318.15 K	0.000538 1/K	0.000534 1/K	0.00053 1/K	0.000522 1/K	0.000517 1/K	0.000513 1/K	0.000508 1/K	0.000504 1/K	0.000499 1/K	0.000494 1/K
328.15 K	0.000533 1/K	0.000529 1/K	0.000524 1/K	0.000519 1/K	0.000512 1/K	0.000508 1/K	0.000503 1/K	0.000498 1/K	0.000493 1/K	0.000489 1/K
338.15 K	0.00053 1/K	0.000525 1/K	0.000521 1/K	0.000514 1/K	0.000508 1/K	0.000506 1/K	0.000499 1/K	0.000496 1/K	0.000491 1/K	0.000489 1/K
348.15 K	0.000527 1/K	0.000524 1/K	0.000517 1/K	0.000512 1/K	0.000506 1/K	0.000502 1/K	0.000499 1/K	0.000494 1/K	0.00049 1/K	0.000486 1/K

CCCCn1cc[n+](C)c1.F[B-](F)(F)F [1-butyl-3-methylimidazolium tetrafluoroborate]
isobaric coefficient of expansion
Settings	5000 kPa	10000 kPa	15000 kPa	20000 kPa	25000 kPa	30000 kPa	35000 kPa	40000 kPa	45000 kPa	50000 kPa
278.15 K	0.000605 1/K	0.0006 1/K	0.000592 1/K	0.000586 1/K	0.000581 1/K	0.000575 1/K	0.000571 1/K	0.000564 1/K	0.000559 1/K	0.000553 1/K
288.15 K	0.000598 1/K	0.000592 1/K	0.000587 1/K	0.000582 1/K	0.000577 1/K	0.00057 1/K	0.000566 1/K	0.000557 1/K	0.000555 1/K	0.000553 1/K
298.15 K	0.000594 1/K	0.00059 1/K	0.000581 1/K	0.000575 1/K	0.000571 1/K	0.000563 1/K	0.000558 1/K	0.000552 1/K	0.000547 1/K	0.000545 1/K
308.15 K	0.000588 1/K	0.00058 1/K	0.000575 1/K	0.000569 1/K	0.000561 1/K	0.000557 1/K	0.00055 1/K	0.000547 1/K	0.000542 1/K	0.000535 1/K
318.15 K	0.00058 1/K	0.000577 1/K	0.00057 1/K	0.000561 1/K	0.000558 1/K	0.000552 1/K	0.000547 1/K	0.000543 1/K	0.000536 1/K	0.000532 1/K
328.15 K	0.000576 1/K	0.00057 1/K	0.000563 1/K	0.000559 1/K	0.000551 1/K	0.000544 1/K	0.000541 1/K	0.000534 1/K	0.000528 1/K	0.000523 1/K
338.15 K	0.000571 1/K	0.000566 1/K	0.000561 1/K	0.000552 1/K	0.000547 1/K	0.000543 1/K	0.000536 1/K	0.000531 1/K	0.000526 1/K	0.000522 1/K
348.15 K	0.000569 1/K	0.000566 1/K	0.000557 1/K	0.000552 1/K	0.000545 1/K	0.000539 1/K	0.000535 1/K	0.000528 1/K	0.000524 1/K	0.00052 1/K

CCCCn1cc[n+](C)c1.O=S(=O)([O-])C(F)(F)F [1-butyl-3-methylimidazolium trifluoromethanesulfonate]
isobaric coefficient of expansion
Settings	5000 kPa	10000 kPa	15000 kPa	20000 kPa	25000 kPa	30000 kPa	35000 kPa	40000 kPa	45000 kPa	50000 kPa
278.15 K	0.000621 1/K	0.000612 1/K	0.000603 1/K	0.000599 1/K	0.00059 1/K	0.000585 1/K	0.000579 1/K	0.000575 1/K	0.000566 1/K	0.000561 1/K
288.15 K	0.000617 1/K	0.000607 1/K	0.000599 1/K	0.000593 1/K	0.000588 1/K	0.00058 1/K	0.000574 1/K	0.000566 1/K	0.000561 1/K	0.000558 1/K
298.15 K	0.00061 1/K	0.000604 1/K	0.000595 1/K	0.000588 1/K	0.000581 1/K	0.000574 1/K	0.000566 1/K	0.000559 1/K	0.000554 1/K	0.000549 1/K
308.15 K	0.000606 1/K	0.000597 1/K	0.000587 1/K	0.000581 1/K	0.000574 1/K	0.000568 1/K	0.000562 1/K	0.000556 1/K	0.000548 1/K	0.000543 1/K
318.15 K	0.0006 1/K	0.000595 1/K	0.000585 1/K	0.000579 1/K	0.000571 1/K	0.000564 1/K	0.000557 1/K	0.000551 1/K	0.000544 1/K	0.000539 1/K
328.15 K	0.000596 1/K	0.000586 1/K	0.000581 1/K	0.000574 1/K	0.000565 1/K	0.000559 1/K	0.000552 1/K	0.000544 1/K	0.000538 1/K	0.000534 1/K
338.15 K	0.000594 1/K	0.000585 1/K	0.000578 1/K	0.000571 1/K	0.000562 1/K	0.000556 1/K	0.000548 1/K	0.000542 1/K	0.000537 1/K	0.000532 1/K
348.15 K	0.000591 1/K	0.000583 1/K	0.000574 1/K	0.000568 1/K	0.000559 1/K	0.000552 1/K	0.000547 1/K	0.00054 1/K	0.000535 1/K	0.00053 1/K
